According to patent US9914730B2, “Azaquinazoline inhibitors of Atypical protein Kinase C” (Ignyta, Inc., priority 2012, dated 2018):

Each compound was assayed against T1, full-length human PKCι (Homo sapiens, UniProt P41743) (assay: PKCι IC50 IMAP assay, full-length PKCι at 150 μM ATP). Settings: read-out: IC50 in IMAP assay against full length PKCi at 150 μM ATP.
T1 construct: Recombinant, full-length human PKCι expressed in Sf21 insect cells is also commercially available; purchased; host or cells: Sf21 insect cells
T1 sequence (P41743 1-596): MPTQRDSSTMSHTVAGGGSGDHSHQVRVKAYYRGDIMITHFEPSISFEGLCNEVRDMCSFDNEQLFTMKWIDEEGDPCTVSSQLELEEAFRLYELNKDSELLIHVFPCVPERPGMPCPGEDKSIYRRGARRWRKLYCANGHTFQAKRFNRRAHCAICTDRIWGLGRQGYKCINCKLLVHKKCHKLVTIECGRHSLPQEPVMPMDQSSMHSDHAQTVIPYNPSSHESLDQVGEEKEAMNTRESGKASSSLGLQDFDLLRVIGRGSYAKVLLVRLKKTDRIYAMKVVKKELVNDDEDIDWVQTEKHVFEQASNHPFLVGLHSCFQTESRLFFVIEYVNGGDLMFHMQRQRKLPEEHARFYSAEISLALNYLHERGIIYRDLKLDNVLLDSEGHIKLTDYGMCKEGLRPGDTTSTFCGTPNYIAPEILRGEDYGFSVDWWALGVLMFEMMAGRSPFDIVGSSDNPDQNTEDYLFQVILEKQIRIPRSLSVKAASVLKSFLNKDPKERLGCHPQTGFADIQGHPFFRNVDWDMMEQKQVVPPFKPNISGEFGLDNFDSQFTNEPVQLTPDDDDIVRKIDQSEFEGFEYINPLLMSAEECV
Type: biochemical
In short: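 IC50 from IMAP FP (ex 485/em 530 nm) after 60 min room-temperature reaction in pH 7.5 tris buffer with 9 mM MgCl2 and 0.9 mM DTT. Enzyme: full-length Sf21-expressed PKCι (~15 pM); ATP 150 μM, five times KM^APP; FAM-labelled peptide 100 nM; DMSO 4%.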

Row | IC50 | Structure (SMILES)
1 | 100 to 1000 nM | CN1CCN(c2cccc(Nc3cc(-c4nc(N5CCCCCC5)c5c(C6CC6)cncc5n4)ccn3)c2)CC1 [Example 804, [4-(4-Azepan-1-yl-5-cyclopropyl-pyrido[3,4-d]pyrimidin-2-yl)-pyridin-2-yl]-[3-(4-methyl-piperazin-1-yl)-phenyl]-amine]
2 | 100 to 1000 nM | OC1CCN(c2nc(-c3ccnc(Nc4cccc(F)n4)c3)nc3cncc(C4CC4)c23)CC1 [Example 805, 1-{5-Cyclopropyl-2-[2-(6-fluoro-pyridin-2-ylamino)-pyridin-4-yl]-pyrido[3,4-d]pyrimidin-4-yl}-piperidin-4-ol]
3 | 1000 to 10000 nM | O[C@@H]1CCCN(c2nc(-c3ccnc(Nc4cccc(F)n4)c3)nc3cncc(C4CC4)c23)C1 [Example 806, (R)-1-{5-Cyclopropyl-2-[2-(6-fluoro-pyridin-2-ylamino)-pyridin-4-yl]-pyrido[3,4-d]pyrimidin-4-yl}-piperidin-3-ol]
4 | < 100 nM | Fc1cc(F)c(Nc2cc(-c3nc(N4CCNCC4)c4c(C5CCC5)cncc4n3)ccn2)nc1F [Example 807, [4-(5-Cyclobutyl-4-piperazin-1-yl-pyrido[3,4-d]pyrimidin-2-yl)-pyridin-2-yl]-(3,5,6-trifluoro-pyridin-2-yl)-amine]
5 | < 100 nM | C[C@H]1CN(c2nc(-c3ccnc(Nc4nc(F)c(F)cc4F)c3)nc3cncc(C4CCC4)c23)CCN1 [Example 808, {4-[5-Cyclobutyl-4-((S)-3-methyl-piperazin-1-yl)-pyrido[3,4-d]pyrimidin-2-yl]-pyridin-2-yl}-(3,5,6-trifluoro-pyridin-2-yl)-amine]
6 | < 100 nM | FC(F)(F)c1ccc(Nc2cc(-c3nc(N4CCNCC4)c4c(C5CCC5)cncc4n3)ccn2)nc1 [Example 809, [4-(5-Cyclobutyl-4-piperazin-1-yl-pyrido[3,4-d]pyrimidin-2-yl)-pyridin-2-yl]-(5-trifluoromethyl-pyridin-2-yl)-amine]
7 | < 100 nM | C[C@@H](Nc1cc(-c2nc(N3CCNCC3)c3c(C4CC4)cncc3n2)ccn1)C1CC1 [Example 810, ((R)-1-Cyclopropyl-ethyl)-[4-(5-cyclopropyl-4-piperazin-1-yl-pyrido[3,4-d]pyrimidin-2-yl)-pyridin-2-yl]-amine]
8 | < 100 nM | C[C@@H](Nc1cc(-c2nc(N3CCNCC3)c3c(C4CC4)cncc3n2)ccn1)C1CCCCC1 [Example 811, ((R)-1-Cyclohexyl-ethyl)-[4-(5-cyclopropyl-4-piperazin-1-yl-pyrido[3,4-d]pyrimidin-2-yl)-pyridin-2-yl]-amine]
9 | < 100 nM | Fc1cc(C2CC2)cnc1Nc1cc(-c2nc(N3CCNCC3)c3c(C4CC4)cncc3n2)ccn1 [Example 812, (5-Cyclopropyl-3-fluoro-pyridin-2-yl)-[4-(5-cyclopropyl-4-piperazin-1-yl-pyrido[3,4-d]pyrimidin-2-yl)-pyridin-2-yl]-amine]
10 | < 100 nM | CC(C)(C)C(=O)N1CCC(Nc2cc(-c3nc(N4CCNCC4)c4c(C5CC5)cncc4n3)ccn2)CC1 [Example 813, 1-{4-[4-(5-Cyclopropyl-4-piperazin-1-yl-pyrido[3,4-d]pyrimidin-2-yl)-pyridin-2-ylamino]-piperidin-1-yl}-2,2-dimethyl-propan-1-one]
11 | < 100 nM | FC(F)(F)CN1CCC(Nc2cc(-c3nc(N4CCNCC4)c4c(C5CC5)cncc4n3)ccn2)CC1 [Example 814, [4-(5-Cyclopropyl-4-piperazin-1-yl-pyrido[3,4-d]pyrimidin-2-yl)-pyridin-2-yl]-[1-(2,2,2-trifluoro-ethyl)-piperidin-4-yl]-amine]
12 | < 100 nM | CC1(C)CN(c2nc(-c3ccnc(Nc4nc(F)c(F)cc4F)c3)nc3cncc(C4CC4)c23)CCN1 [Example 815, {4-[5-Cyclopropyl-4-(3,3-dimethyl-piperazin-1-yl)-pyrido[3,4-d]pyrimidin-2-yl]-pyridin-2-yl}-(3,5,6-trifluoro-pyridin-2-yl)-amine]
13 | < 100 nM | CS(=O)(=O)N1CCC(Nc2cc(-c3nc(N4CCNCC4)c4c(C5CC5)cncc4n3)ccn2)CC1 [Example 816, [4-(5-Cyclopropyl-4-piperazin-1-yl-pyrido[3,4-d]pyrimidin-2-yl)-pyridin-2-yl]-(1-methanesulfonyl-piperidin-4-yl)-amine]
14 | < 100 nM | Fc1ccccc1-n1cc(Nc2cc(-c3nc(N4CCNCC4)c4c(C5CC5)cncc4n3)ccn2)cn1 [Example 817, [4-(5-Cyclopropyl-4-piperazin-1-yl-pyrido[3,4-d]pyrimidin-2-yl)-pyridin-2-yl]-[1-(2-fluoro-phenyl)-1H-pyrazol-4-yl]-amine]
15 | < 100 nM | Fc1cccc(F)c1-n1cc(Nc2cc(-c3nc(N4CCNCC4)c4c(C5CC5)cncc4n3)ccn2)cn1 [Example 818, [4-(5-Cyclopropyl-4-piperazin-1-yl-pyrido[3,4-d]pyrimidin-2-yl)-pyridin-2-yl]-[1-(2,6-difluoro-phenyl)-1H-pyrazol-4-yl]-amine]
16 | < 100 nM | Fc1cc(F)c(-n2cc(Nc3cc(-c4nc(N5CCNCC5)c5c(C6CC6)cncc5n4)ccn3)cn2)c(F)c1 [Example 820, [4-(5-Cyclopropyl-4-piperazin-1-yl-pyrido[3,4-d]pyrimidin-2-yl)-pyridin-2-yl]-[1-(2,4,6-trifluoro-phenyl)-1H-pyrazol-4-yl]-amine]
17 | < 100 nM | CN1Cc2ccc(Nc3cc(-c4nc(N5CCC(O)CC5)c5c(C6CC6)cncc5n4)ccn3)cc2C1 [Example 821, 1-{5-Cyclopropyl-2-[2-(2-methyl-2,3-dihydro-1H-isoindol-5-ylamino)-pyridin-4-yl]-pyrido[3,4-d]pyrimidin-4-yl}-piperidin-4-ol]
18 | 1000 to 10000 nM | NC(=O)c1cc(F)c(Nc2cc(-c3nc(N4CCNCC4)c4c(C5CC5)cncc4n3)ccn2)c(F)c1 [Example 822, 4-[4-(5-Cyclopropyl-4-piperazin-1-yl-pyrido[3,4-d]pyrimidin-2-yl)-pyridin-2-ylamino]-3,5-difluoro-benzamide]
19 | < 100 nM | c1cc(-c2nc(N3CCNCC3)c3c(C4CC4)cncc3n2)cc(N[C@H]2C[C@@H]3CC[C@H]2C3)n1 [Example 823, (1S,2S,4R)-Bicyclo[2.2.1]hept-2-yl-[4-(5-cyclopropyl-4-piperazin-1-yl-pyrido[3,4-d]pyrimidin-2-yl)-pyridin-2-yl]-amine]
20 | < 100 nM | c1cc(-c2nc(N3CCNCC3)c3c(C4CC4)cncc3n2)cc(N[C@@H]2C[C@H]3CC[C@@H]2C3)n1 [Example 824, (1R,2R,4S)-Bicyclo[2.2.1]hept-2-yl-[4-(5-cyclopropyl-4-piperazin-1-yl-pyrido[3,4-d]pyrimidin-2-yl)-pyridin-2-yl]-amine]
21 | < 100 nM | c1cc(C2CC2)n2nc(Nc3cc(-c4nc(N5CCNCC5)c5c(C6CC6)cncc5n4)ccn3)nc2c1 [Example 825, [4-(5-Cyclopropyl-4-piperazin-1-yl-pyrido[3,4-d]pyrimidin-2-yl)-pyridin-2-yl]-(5-cyclopropyl-[1,2,4]triazolo[1,5-a]pyridin-2-yl)-amine]
22 | 100 to 1000 nM | CN(C)CCOc1nc(-c2ccnc(Nc3c(F)cccc3F)c2)nc2cncc(C3CC3)c12 [Example 826, {4-[5-Cyclopropyl-4-(2-dimethylamino-ethoxy)-pyrido[3,4-d]pyrimidin-2-yl]-pyridin-2-yl}-(2,6-difluoro-phenyl)-amine]
23 | < 100 nM | FC(F)(F)c1ccc(Nc2cc(-c3nc(N4CCNCC4)c4c(C5CC5)cncc4n3)ccn2)nc1 [Example 827, [4-(5-Cyclopropyl-4-piperazin-1-yl-pyrido[3,4-d]pyrimidin-2-yl)-pyridin-2-yl]-(5-trifluoromethyl-pyridin-2-yl)-amine]
